Assay results from US10603357B2, “Therapeutic TREM-1 peptides” (Universite de Lorraine, priority 2004, dated 2020).
Marks after values point to notes of the source that are not given here.

Legend:
[1] = system: rats; assay: CLP polymicrobial sepsis model in rats, haemodynamic and biological measurements; assay type: in vivo, rat; settings: for effect on TNF-α production: CLP (FIG. 16); for Aortic blood flow / Bicarbonate / Heart Rate / Lactate / Mesenteric blood flow / pH: CLP polymicrobial sepsis; for decline in arterial pressure over time: H16 to H24 (FIG. 15)
Method: The procedure has been described in details elsewhere (see Mansart, A. et al. Shock 19:38-44 (2003)). Briefly, rats (n=6-10 per group) were anesthetized by i.p. administration of ketamine (150 mg/kg). The caecum was exposed through a 3.0-cm abdominal midline incision and subjected to a ligation of the distal half followed by two punctures with a G21 needle. A small amount of stool was expelled from the punctures to ensure […]. The caecum was replaced into the peritoneal cavity and the abdominal incision closed in two layers. After surgery, all rats were injected s.c. with 50 mL/kg of normal saline solution for fluid resuscitation. TREM-1 or scrambled peptides were then administered as above.
Immediately after LPS administration as well as 16 hours after CLP, arterial BP (systolic, diastolic, and mean), heart rate, abdominal aortic blood flow, and mesenteric blood flow were recorded using a procedure described elsewhere (see Mansart, A. et al. Shock 19:38-44 (2003)). Briefly, the left carotid artery and the left jugular vein were cannulated with PE-50 tubing. Arterial BP was continuously monitored by a pressure transducer and an amplifier-recorder system (IOX EMKA Technologies, Paris, France). Perivascular probes (Transonic Systems, Ithaca, N.Y.) wrapped up the upper abdominal aorta and mesenteric artery, allowed to monitor their respective flows by means of a flowmeter (Transonic Systems). After the last measurement (4th hour during LPS experiments and 24th hour after CLP), animals were sacrificed by an overdose of sodium thiopental i.v.
Blood was sequentially withdrawn from the left carotid artery. Arterial lactate concentrations and blood gases analyses were performed on an automatic blood gas analyser (ABL 735, Radiometer, Copenhagen, Denmark). Concentrations of TNF-α and IL-1β in the plasma were determined by an ELISA test (Biosource, Nivelles, Belgium) according to the recommendations of the manufacturer. Plasmatic concentrations of nitrates/nitrites were measured using the Griess reaction (R&D Systems, Abingdon, UK).

[2] = system: C57BL/6 mice; assay: cecal ligation and puncture (CLP), survival of mice (Example 1); assay type: in vivo, mouse; settings: 200 μl of 600 μM i.p. 5 and 24 hours after CLP; 5 days after CLP; 15 per group
Method: CLP was induced in C57BL/6 mice (15 per group) as described in Materials and Methods. P1 peptide (empty dots) or P3 peptide (filled squares) (200 μl of a 600 μM solution per mouse) were injected intraperitoneally 5 and 24 hours after CLP induction. Viability of mice was monitored twice a day for 10 days. Statistical analysis was performed with the Logrank test.
In order to investigate whether TREM-1 peptide treatment could be delayed until after the administration of LPS, the Inventors injected the peptides at 4 hours after LPS injection. […] 80% of the mice injected with P1 4 hours after LPS survived endotoxaemia compared to 60% of mice treated 1 h before LPS and 10% of mice treated with vehicle alone (p<0.001 and p<0.01 respectively). Thus, P1 is effective even when injected after the outbreak of endotoxaemia. […] P1 administration conferred maximal protection (80%) when administered at 600 μM (p<0.01) and the level of protection dropped to 50% at 300 μM (p<0.05) and further down to 30% at 150 μM as compared to 20% of control mice, indicating a dose dependent effect of P1 (FIG. 4). The Inventors then investigated whether P1 protects against septic shock in the “CLP” model (Cecal Ligation and Puncture is a widely used experimental model of sepsis). […]

Sequence	effect on TNF-α production [1]	Aortic blood flow ([1]; H16) [mL/min]	Bicarbonate ([1]; H16) [mmol/L]	Heart Rate ([1]; H16)	Lactate ([1]; H16)	Mesenteric blood flow ([1]; H16)	pH ([1]; H16)	Aortic blood flow ([1]; H20)	Bicarbonate ([1]; H20)	Heart Rate ([1]; H20)	Lactate ([1]; H20)	Mesenteric blood flow ([1]; H20)	pH ([1]; H20)	Aortic blood flow ([1]; H24)	Bicarbonate ([1]; H24)	Heart Rate ([1]; H24) [bpm]	Lactate ([1]; H24)	Mesenteric blood flow ([1]; H24)	pH ([1]; H24)	decline in arterial pressure over time ([1]; CLP)	other results
LQVTDSGLYRCVIYHPP [P5]	decrease	41 ± 14	18.6 ± 2.0	460 ± 17^b bpm	3.3 ± 0.4^b mmol/L	15.3 ± 3.5^b mL/min	7.35 ± 0.01^b	31 ± 5^b mL/min	18.0 ± 0.9^a mmol/L	500 ± 17^b bpm	3.6 ± 0.9^b, c mmol/L	11.0 ± 6.9^b, c mL/min	7.34 ± 0.01^b	28 ± 8^b mL/min	17.1 ± 0.9^a, c mmol/L	510 ± 20	4.9 ± 1.1^b, c mmol/L	8.5 ± 3.5^b, c mL/min	7.36 ± 0.01^b, c	almost totally abolished	plasmatic TNF-α ([1]; CLP, by H20 (FIG. 16)): almost undetectable
LVVTQRPFTRPSEVHMGKFTLKH (listed as Mus musculus) [P1]	decrease	41 ± 12	16.8 ± 4.4	462 ± 16^a bpm	4.9 ± 0.4 mmol/L	13.5 ± 7.2 mL/min	7.32 ± 0.04	28 ± 17^a mL/min	16.0 ± 5.4^b mmol/L	480 ± 30^a bpm	5.3 ± 1.1^a, c mmol/L	5.3 ± 3.0^c mL/min	7.31 ± 0.18^a	22 ± 16^a mL/min	11.2 ± 0.8^c mmol/L	420 ± 30	6.8 ± 0.9^a, c mmol/L	4.5 ± 2.1^c mL/min	7.24 ± 0.06^a, c	almost totally abolished	mice surviving after CLP [2]: 40%
